Activity calls are given as the source filed them. The rule behind the calls is not given here.
Experiments:
[1] = target: Delta-type opioid receptor (Homo sapiens) (UniProt P41143); assay: Displacement of [3H]-naltrindole from human delta opioid receptor expressed in human HEK293 cells after 2 hrs by scintillation counting; assay type: cell-based
Nociceptin receptor [2] = target: T1, Nociceptin receptor (Homo sapiens, UniProt P41146); assay: Displacement of [125I]Tyr14-nociceptin from human NOP receptor expressed in human HEK293 cells after 90 mins by scintillation counting
Nociceptin receptor [3] = target: T1, Nociceptin receptor; assay: Antagonist activity at human NOP receptor expressed in human HEK293 cells assessed as inhibition of GTPgammaS binding in presence of 300 nM GDP relative to control; assay type: functional, cell-based
Mu-type opioid receptor = Mu-type opioid receptor (Homo sapiens, UniProt P35372); assay: Displacement of [3H]-naltrindole from human mu opioid receptor expressed in CHO cells after 2 hrs by scintillation counting; assay type: cell-based
Homo sapiens [4] = species on record: Homo sapiens; assay: Selectivity ratio of IC50 for human mu opioid receptor to IC50 for human NOP receptor
Homo sapiens [5] = species on record: Homo sapiens; assay: Selectivity ratio of IC50 for human kappa opioid receptor to IC50 for human NOP receptor
[6] = target: Kappa-type opioid receptor (Homo sapiens, UniProt P41145); assay: Displacement of [3H]-diprenorphine from human kappa opioid receptor expressed in human HEK293 cells after 2 hrs by scintillation counting
Sequence of Kappa-type opioid receptor (P41145 whole entry): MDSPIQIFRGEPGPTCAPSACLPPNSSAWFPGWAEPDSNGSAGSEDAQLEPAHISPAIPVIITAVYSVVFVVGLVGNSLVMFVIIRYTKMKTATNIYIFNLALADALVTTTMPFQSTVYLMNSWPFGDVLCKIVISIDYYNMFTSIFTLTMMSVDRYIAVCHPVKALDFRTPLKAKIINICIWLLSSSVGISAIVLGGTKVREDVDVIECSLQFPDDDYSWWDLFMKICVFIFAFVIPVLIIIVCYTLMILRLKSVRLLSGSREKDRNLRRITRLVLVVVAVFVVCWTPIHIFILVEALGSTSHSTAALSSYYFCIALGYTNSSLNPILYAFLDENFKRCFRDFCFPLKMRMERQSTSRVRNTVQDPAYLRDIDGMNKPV

Sequence of Delta-type opioid receptor (Homo sapiens) (P41143 whole entry): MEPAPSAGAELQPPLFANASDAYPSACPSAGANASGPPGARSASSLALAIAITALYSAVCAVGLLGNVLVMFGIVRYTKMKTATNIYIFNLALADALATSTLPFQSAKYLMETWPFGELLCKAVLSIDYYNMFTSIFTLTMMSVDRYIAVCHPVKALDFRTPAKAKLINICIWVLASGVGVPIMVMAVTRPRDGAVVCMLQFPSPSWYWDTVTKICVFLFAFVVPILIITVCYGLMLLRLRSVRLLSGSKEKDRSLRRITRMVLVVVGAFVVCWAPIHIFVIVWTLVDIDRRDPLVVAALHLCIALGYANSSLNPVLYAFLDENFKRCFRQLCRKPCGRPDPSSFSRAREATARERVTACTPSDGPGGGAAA
Sequence of Mu-type opioid receptor (P35372 whole entry): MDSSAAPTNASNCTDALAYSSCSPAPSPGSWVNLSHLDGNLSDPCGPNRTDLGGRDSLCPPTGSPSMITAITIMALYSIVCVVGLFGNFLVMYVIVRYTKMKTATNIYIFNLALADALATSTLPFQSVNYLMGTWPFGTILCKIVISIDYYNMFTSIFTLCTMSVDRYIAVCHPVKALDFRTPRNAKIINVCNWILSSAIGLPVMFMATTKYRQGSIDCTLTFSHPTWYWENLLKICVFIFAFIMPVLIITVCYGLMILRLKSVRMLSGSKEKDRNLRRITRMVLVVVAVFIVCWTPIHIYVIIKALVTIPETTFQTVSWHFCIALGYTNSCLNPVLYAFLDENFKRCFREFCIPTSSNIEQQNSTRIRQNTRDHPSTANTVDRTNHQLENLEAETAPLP
T1 sequence (P41146 whole entry): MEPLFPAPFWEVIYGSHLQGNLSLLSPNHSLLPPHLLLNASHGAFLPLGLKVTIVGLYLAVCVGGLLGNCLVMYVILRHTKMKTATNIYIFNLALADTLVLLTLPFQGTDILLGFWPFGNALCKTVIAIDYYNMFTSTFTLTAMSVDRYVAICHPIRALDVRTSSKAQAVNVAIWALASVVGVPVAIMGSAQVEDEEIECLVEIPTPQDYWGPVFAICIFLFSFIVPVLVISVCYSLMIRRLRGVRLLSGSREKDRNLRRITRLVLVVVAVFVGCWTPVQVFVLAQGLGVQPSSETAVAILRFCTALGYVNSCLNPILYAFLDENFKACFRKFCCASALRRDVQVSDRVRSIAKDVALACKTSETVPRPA

Structure (SMILES) | Activity [1] | IC50 (Nociceptin receptor [2]) | Activity (Nociceptin receptor [3]) | IC50 (Mu-type opioid receptor) | Ratio IC50 (Homo sapiens [4]) | Ratio IC50 (Homo sapiens [5]) | IC50 [6]
CCCCCCCCNCc1ccc(OCc2ccccc2C(=O)Nc2ccc3nc(C)cc(N)c3c2)cc1 | inactive | 483 nM | Active | 4340 nM | 13 | 15 | 4950 nM
CCCCCCCNCc1ccc(OCc2ccccc2C(=O)Nc2ccc3nc(C)cc(N)c3c2)cc1 | inactive | 668 nM | Active | 1980 nM | 6.6 | 6.2 | 1850 nM
CCCCCCCCCCNCc1ccc(OCc2ccccc2C(=O)Nc2ccc3nc(C)cc(N)c3c2)cc1 | inactive | 405 nM | Active | 2750 nM | 9.6 | 15 | 4350 nM
CCCCCC/N=C/c1ccc(OCc2ccccc2C(=O)Nc2ccc3nc(C)cc(N)c3c2)cc1 | inactive | 209 nM | Active |  |  |  | 
CCCCCCCCC/N=C/c1ccc(OCc2ccccc2C(=O)Nc2ccc3nc(C)cc(N)c3c2)cc1 | inactive | 154 nM | Active |  |  |  | 
CCCCC/N=C/c1ccc(OCc2ccccc2C(=O)Nc2ccc3nc(C)cc(N)c3c2)cc1 | inactive | 186 nM | Active |  |  |  | 
Cc1cc(N)c2cc(NC(=O)c3ccccc3COc3ccc(CN)cc3)ccc2n1 | inactive | 116 nM | Active |  |  |  | 
CCCCCCNCc1ccc(OCc2ccccc2C(=O)Nc2ccc3nc(C)cc(N)c3c2)cc1 | inactive | 1220 nM | Active | 2590 nM | 2.6 | 1.2 | 1160 nM
Cc1cc(N)c2cc(NC(=O)c3ccccc3COc3ccc(CNCCCCCCCCCCN)cc3)ccc2n1 | inactive | 153 nM | Active | 1400 nM | 13 | 86 | 9100 nM
Cc1cc(N)c2cc(NC(=O)c3ccccc3COc3ccc(CNCCCCCCN)cc3)ccc2n1 | inactive | 1110 nM | Active | 6000 nM | 7.4 | 1.5 | 1220 nM
CCCCCCCC/N=C/c1ccc(OCc2ccccc2C(=O)Nc2ccc3nc(C)cc(N)c3c2)cc1 | inactive | 147 nM | Active |  |  |  | 
CCCCCCCCCC/N=C/c1ccc(OCc2ccccc2C(=O)Nc2ccc3nc(C)cc(N)c3c2)cc1 | inactive | 184 nM | Active |  |  |  | 
CCCC/N=C/c1ccc(OCc2ccccc2C(=O)Nc2ccc3nc(C)cc(N)c3c2)cc1 | inactive | 309 nM | Active |  |  |  | 
CCCCCCC/N=C/c1ccc(OCc2ccccc2C(=O)Nc2ccc3nc(C)cc(N)c3c2)cc1 | inactive | 142 nM | Active |  |  |  | 
Cc1cc(N)c2cc(NC(=O)c3ccccc3COc3ccc(C=O)cc3)ccc2n1 | inactive | 207 nM | Active |  |  |  | 
Cc1cc(N)c2cc(NC(=O)c3ccccc3COc3ccc(/C=N/CCCCCC/N=C/c4ccc(OCc5ccccc5C(=O)Nc5ccc6nc(C)cc(N)c6c5)cc4)cc3)ccc2n1 | inactive | 83.3 nM | Active |  |  |  | 
CCC/N=C/c1ccc(OCc2ccccc2C(=O)Nc2ccc3nc(C)cc(N)c3c2)cc1 | inactive | 98.9 nM | Active |  |  |  | 
Cc1cc(N)c2cc(NC(=O)c3ccccc3COc3ccc(/C=N/CCCCCCCC/N=C/c4ccc(OCc5ccccc5C(=O)Nc5ccc6nc(C)cc(N)c6c5)cc4)cc3)ccc2n1 | inactive | 114 nM | Active |  |  |  | 

Continued by falling IC50 (Nociceptin receptor [2]), values first:

Activity [1] | IC50 (Nociceptin receptor [2]) | Activity (Nociceptin receptor [3]) | IC50 (Mu-type opioid receptor) | Ratio IC50 (Homo sapiens [4]) | Ratio IC50 (Homo sapiens [5]) | IC50 [6] | Structure (SMILES)
inactive | 83 nM | Active | 3350 nM | 49 | 45 | 3080 nM | CCCNCc1ccc(OCc2ccccc2C(=O)Nc2ccc3nc(C)cc(N)c3c2)cc1
inactive | 82.7 nM | Active |  |  |  |  | Cc1cc(N)c2cc(NC(=O)c3ccccc3COc3ccc(/C=N/CCCCCCCCC/N=C/c4ccc(OCc5ccccc5C(=O)Nc5ccc6nc(C)cc(N)c6c5)cc4)cc3)ccc2n1
inactive | 82.1 nM | Active |  |  |  |  | Cc1cc(N)c2cc(NC(=O)c3ccccc3COc3ccc(/C=N/CCCCCCCCCC/N=C/c4ccc(OCc5ccccc5C(=O)Nc5ccc6nc(C)cc(N)c6c5)cc4)cc3)ccc2n1
inactive | 71.7 nM | Active | 1390 nM | 31 | 30 | 1350 nM | Cc1cc(N)c2cc(NC(=O)c3ccccc3COc3ccc(CNCCCCCCNCc4ccc(OCc5ccccc5C(=O)Nc5ccc6nc(C)cc(N)c6c5)cc4)cc3)ccc2n1
inactive | 63.1 nM | Active |  |  |  |  | Cc1cc(N)c2cc(NC(=O)c3ccccc3COc3ccc(/C=N/CCCCCCC/N=C/c4ccc(OCc5ccccc5C(=O)Nc5ccc6nc(C)cc(N)c6c5)cc4)cc3)ccc2n1
inactive | 56.6 nM | Active | 1590 nM | 39 | 27 | 1090 nM | Cc1cc(N)c2cc(NC(=O)c3ccccc3COc3ccc(CNCCCCNCc4ccc(OCc5ccccc5C(=O)Nc5ccc6nc(C)cc(N)c6c5)cc4)cc3)ccc2n1
inactive | 50.9 nM | Active |  |  |  |  | Cc1cc(N)c2cc(NC(=O)c3ccccc3COc3ccc(/C=N/CCCCC/N=C/c4ccc(OCc5ccccc5C(=O)Nc5ccc6nc(C)cc(N)c6c5)cc4)cc3)ccc2n1
inactive | 48 nM | Active |  |  |  |  | Cc1cc(N)c2cc(NC(=O)c3ccccc3COc3ccc(/C=N/CCC/N=C/c4ccc(OCc5ccccc5C(=O)Nc5ccc6nc(C)cc(N)c6c5)cc4)cc3)ccc2n1
inactive | 35.6 nM | Active |  |  |  |  | Cc1cc(N)c2cc(NC(=O)c3ccccc3COc3ccc(/C=N/CCCC/N=C/c4ccc(OCc5ccccc5C(=O)Nc5ccc6nc(C)cc(N)c6c5)cc4)cc3)ccc2n1
inactive | 30.1 nM | Active | 1040 nM | 34 | 33 | 1020 nM | Cc1cc(N)c2cc(NC(=O)c3ccccc3COc3ccc(CNCCCCCCCNCc4ccc(OCc5ccccc5C(=O)Nc5ccc6nc(C)cc(N)c6c5)cc4)cc3)ccc2n1
inactive | 30 nM | Active | 1510 nM | 50 | 250 | 7510 nM | CCc1ccc(OCc2ccccc2C(=O)Nc2ccc3nc(C)cc(N)c3c2)cc1
inactive | 28.1 nM | Active | 1160 nM | 40 | 36 | 1050 nM | Cc1cc(N)c2cc(NC(=O)c3ccccc3COc3ccc(CNCCCCCCCCCNCc4ccc(OCc5ccccc5C(=O)Nc5ccc6nc(C)cc(N)c6c5)cc4)cc3)ccc2n1
